# Where a SMILES comes first, the peptide text is derived from it. [ ]: non-standard residue; d: D form. pS = N[C@@H](COP(=O)(O)O)C(=O)O
# How the values were obtained:
# [1] = Precipitation of Olaparib; format: physicochemical
# BRCT(BRCA1) [2] = target: T1, BRCT(BRCA1) (Homo sapiens, UniProt P38398); conditions: systematic structure activity relationship study; ref [3]; cited from earlier work
# BRCT(BRCA1) [3] = target: T1, BRCT(BRCA1); experiment: Competitive fluorescence polarization, inhibition of BRCT; format: binding
# T1 sequence (P38398 1646-1859 limits assumed): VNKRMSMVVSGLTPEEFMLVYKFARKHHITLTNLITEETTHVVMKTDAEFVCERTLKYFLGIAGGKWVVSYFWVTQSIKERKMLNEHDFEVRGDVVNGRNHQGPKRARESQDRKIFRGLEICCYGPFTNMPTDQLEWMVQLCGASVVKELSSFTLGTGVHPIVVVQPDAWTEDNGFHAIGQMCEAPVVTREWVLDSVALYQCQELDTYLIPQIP
smiles,measurement,setting,value
O=C(c1cc(Cc2n[nH]c(=O)c3ccccc23)ccc1F)N1CCN(C(=O)C2CC2)CC1 [Olaparib],concentration at which precipitation of Olaparib was observed,[1],higher than 25 μM
"CC(=O)N[C@@H](COP(=O)(O)O)C(=O)N1CCC[C@H]1C(=O)N[C@H](C(=O)N[C@@H](Cc1ccccc1)C(=O)O)[C@@H](C)O [Inhibitor 1, Ac-pSPTF-CO2H] (Ac-[pS]PTF-OH)",binding affinity for BRCT(BRCA1),BRCT(BRCA1) [2],nanomolar binding affinities
same,Ki,BRCT(BRCA1) [3],230 ± 60 nM

# — PMC3402595 (Breast Cancer Research and Treatment, 2012)
